From PMC5121239, “Muscle-Type Nicotinic Receptor Modulation by 2,6-Dimethylaniline, a Molecule Resembling the Hydrophobic Moiety of Lidocaine” (Frontiers in Molecular Neuroscience, 2016)

Tests used:
[1] = molecular target: T1, muscle-type nicotinic acetylcholine receptor (nAChR) (Torpedo marmorata, UniProt P02711+Q6S3H8+Q6S3H9+Q6S3I0); test: two-electrode voltage clamp in Xenopus oocytes, agonist concentration-response; assay type: cell-based
T1 construct: gene CHRNA1; purified electroplax nAChR reconstituted in asolectin lipids and microtransplanted to Xenopus oocytes; with nAChR beta, gamma and delta subunits (alpha1, alpha2, beta, gamma, delta heteropentamer)

[2] = molecular target: T1, muscle-type nicotinic acetylcholine receptor (nAChR); test: two-electrode voltage clamp in Xenopus oocytes, inhibition of current evoked by […] ACh; assay type: cell-based

T1 sequence (P02711 25-461): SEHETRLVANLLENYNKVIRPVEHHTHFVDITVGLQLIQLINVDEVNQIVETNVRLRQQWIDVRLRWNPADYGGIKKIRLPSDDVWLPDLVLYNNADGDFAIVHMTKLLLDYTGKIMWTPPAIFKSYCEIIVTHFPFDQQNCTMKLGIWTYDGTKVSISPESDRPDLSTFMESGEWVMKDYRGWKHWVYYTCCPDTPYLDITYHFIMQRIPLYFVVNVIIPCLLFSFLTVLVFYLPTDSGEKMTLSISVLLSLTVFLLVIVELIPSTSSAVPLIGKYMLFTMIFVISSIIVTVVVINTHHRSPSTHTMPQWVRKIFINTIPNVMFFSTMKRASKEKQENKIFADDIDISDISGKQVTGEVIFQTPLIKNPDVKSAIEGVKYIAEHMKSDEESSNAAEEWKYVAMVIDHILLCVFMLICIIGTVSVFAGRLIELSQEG
T1 sequence (Q6S3I0 25-493): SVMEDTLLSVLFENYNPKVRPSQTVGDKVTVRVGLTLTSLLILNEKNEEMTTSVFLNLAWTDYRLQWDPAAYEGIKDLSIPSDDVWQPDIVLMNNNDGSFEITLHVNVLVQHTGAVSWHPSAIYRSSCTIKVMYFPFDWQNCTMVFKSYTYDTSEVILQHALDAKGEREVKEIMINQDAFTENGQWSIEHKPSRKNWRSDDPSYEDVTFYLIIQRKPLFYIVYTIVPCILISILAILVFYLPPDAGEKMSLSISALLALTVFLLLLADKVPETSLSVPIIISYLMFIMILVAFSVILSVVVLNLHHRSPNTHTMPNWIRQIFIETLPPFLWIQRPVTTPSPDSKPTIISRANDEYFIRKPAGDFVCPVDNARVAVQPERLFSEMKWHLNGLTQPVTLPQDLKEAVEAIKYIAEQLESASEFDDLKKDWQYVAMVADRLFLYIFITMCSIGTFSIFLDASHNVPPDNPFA
T1 sequence (Q6S3H9 18-505): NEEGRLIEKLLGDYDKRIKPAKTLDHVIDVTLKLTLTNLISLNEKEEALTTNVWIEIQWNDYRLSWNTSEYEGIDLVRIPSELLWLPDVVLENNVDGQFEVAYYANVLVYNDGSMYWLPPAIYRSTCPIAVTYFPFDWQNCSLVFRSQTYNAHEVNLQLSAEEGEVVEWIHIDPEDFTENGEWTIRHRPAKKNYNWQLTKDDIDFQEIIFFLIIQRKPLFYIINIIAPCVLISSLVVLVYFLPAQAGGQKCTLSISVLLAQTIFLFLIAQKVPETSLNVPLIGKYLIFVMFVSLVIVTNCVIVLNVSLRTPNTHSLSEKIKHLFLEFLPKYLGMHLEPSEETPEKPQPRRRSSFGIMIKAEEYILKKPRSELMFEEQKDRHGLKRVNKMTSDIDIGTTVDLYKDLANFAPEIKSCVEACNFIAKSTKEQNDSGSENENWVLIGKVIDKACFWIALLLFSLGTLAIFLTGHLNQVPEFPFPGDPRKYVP
T1 sequence (Q6S3H8 22-522): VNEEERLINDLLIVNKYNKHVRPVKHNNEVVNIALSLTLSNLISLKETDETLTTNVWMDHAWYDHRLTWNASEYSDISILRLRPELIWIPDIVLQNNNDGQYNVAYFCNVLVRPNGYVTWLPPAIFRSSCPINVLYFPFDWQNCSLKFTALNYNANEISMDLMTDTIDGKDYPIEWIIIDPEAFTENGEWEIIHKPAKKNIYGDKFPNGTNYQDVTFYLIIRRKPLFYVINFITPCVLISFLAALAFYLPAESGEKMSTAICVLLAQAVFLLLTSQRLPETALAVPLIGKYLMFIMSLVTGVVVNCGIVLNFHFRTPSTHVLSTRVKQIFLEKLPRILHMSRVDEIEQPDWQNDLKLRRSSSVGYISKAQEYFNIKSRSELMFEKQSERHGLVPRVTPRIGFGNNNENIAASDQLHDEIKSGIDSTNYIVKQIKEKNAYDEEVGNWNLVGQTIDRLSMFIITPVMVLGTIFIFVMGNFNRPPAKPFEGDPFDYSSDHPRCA

Compound	EC50 [1] [µM]	IC50 [2] [µM]
CC(=O)OCC[N+](C)(C)C [ACh, acetylcholine]	29	–
Cc1cccc(C)c1N [DMA, 2,6-dimethylaniline]	–	2100
